Experimental data as given in patent US11639350B2, “Heteroaryldihydropyrimidine derivatives and methods of treating hepatitis B infections” (Janssen Pharmaceutica NV, priority 2018, dated 2023).
Like-named read-outs stand apart in the source and are kept apart here.

Legend:
HBV = HBV inhibitory activity: HBV DNA in the culture medium of HepG2.2.15 cells by q-PCR; type: cell-based; conditions: HepG2.2.15 cells, 6 days of compound treatment, HBV DNA in culture medium by q-PCR, highest concentration 10 μM, read-out: EC50
Procedure, shortened: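 HepG2.2.15 cells in 2% FBS medium, 40,000 per well, treated 6 days with compound (medium refreshed once), eight 3-fold dilutions from 10 μM top. HBV DNA extracted from culture medium and quantified by q-PCR; EC50 averaged over repeats. Cytotoxicity run in parallel at 5,000 cells per well, top 100 μM, giving CC50.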

[1] = Cytotoxicity determination in HepG2.2.15 cells (CCK-8); type: cell-based; conditions: human, 6 days of compound treatment, CCK-8, highest concentration 100 μM
Procedure, shortened: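 HepG2.2.15 cells seeded at 5,000 cells/well in 2% FBS medium, incubated overnight at 37° C., then treated 6 days with compounds (8 points, 3-fold dilutions, top 100 μM), medium refreshed once midway. CCK-8 added for 2.5 h; A450 read against 630 nm reference; CC50 calculated, averaged over repeats.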

[2] = Hepatitis B virus, HepG2.2.15, 144 h

SMILES | EC50 (HBV; [2]) | CC50 at 6 days [1] | EC50 (HBV)
COC(=O)C1=C(C2CCOCC2)NC(c2nccs2)=NC1c1ccc(F)cc1Cl (single isomer, unassigned) [Compound 51B, Methyl 4-(2-chloro-4-fluorophenyl)-6-(tetrahydro-2H-pyran-4-yl)-2-(thiazol-2-yl)-1,4-dihydropyrimidine-5-carboxylate] | 0.467 µM | > 100 µM | 
CCOC(=O)C1=C([C@H]2CC[C@H](C(=O)O)CC2)NC(c2nccs2)=NC1c1cccc(F)c1Cl (single isomer, unassigned) [Compound 23, trans-4-(6-(2-Chloro-3-fluorophenyl)-5-(ethoxycarbonyl)-2-(thiazol-2-yl)-3,6-dihydropyrimidin-4-yl)cyclohexanecarboxylic Acid] | 0.566 µM | 47.5 µM | 
CCOC(=O)C1=C([C@H]2CC[C@H](C(=O)O)CC2)NC(c2nccs2)=NC1c1ccc(F)c(F)c1Cl (single isomer, unassigned) [Compound 345A, (trans)-(R*)-4-(6-(2-Chloro-3,4-difluorophenyl)-5-(ethoxycarbonyl)-2-(thiazol-2-yl)-3,6-dihydropyrimidin-4-yl)cyclohexanecarboxylic Acid] | 0.044 µM | 34.1 µM | 
COC(=O)C1=C(C23CC(C(C)O)(C2)C3)NC(c2nccs2)=NC1c1ccc(F)cc1Cl (centres unmarked) [Compound 348B, Methyl 4-(2-chloro-4-fluorophenyl)-6-(3-(1-hydroxyethyl)bicyclo[1.1.1]pentan-1-yl)-2-(thiazol-2-yl)-1,4-dihydropyrimidine-5-carboxylate] | 0.063 µM | 25 µM | 
COC(=O)C1=C(C2CCN(S(=O)(=O)[C@H]3C[C@H](C(=O)O)C3)CC2)NC(c2nccs2)=NC1c1ccc(F)cc1Br (stereo partly drawn) [Compound 241B, (trans)-3-((4-(−6-(2-Bromo-4-fluorophenyl)-5-(methoxycarbonyl)-2-(thiazol-2-yl)-3,6-dihydropyrimidin-4-yl)piperidin-1-yl)sulfonyl)cyclobutanecarboxylic Acid] | 0.12 µM | 60 µM | 
COC(=O)C1=C([C@H]2CC[C@H](C(=O)OC)CC2)NC(c2ncc(F)cc2F)=NC1c1ccc(F)cc1Cl (single isomer, unassigned) [Compound 174A, Methyl 4-(2-chloro-4-fluorophenyl)-2-(3,5-difluoropyridin-2-yl)-6-((trans)-4-(methoxycarbonyl)cyclohexyl)-1,4-dihydropyrimidine-5-carboxylate] | 0.128 µM | 19.4 µM | 
CCOC(=O)C1=C([C@H]2C[C@@H](NS(C)(=O)=O)C2(C)C)NC(c2nccs2)=NC1c1ccc(F)cc1Cl (single isomer, unassigned) [Compound 437A, (cis)-Ethyl 4-(2-chloro-4-fluorophenyl)-6-(2,2-dimethyl-3-(methylsulfonamido)cyclobutyl)-2-(thiazol-2-yl)-1,4-dihydropyrimidine-5-carboxylate] | 0.6 µM | 10.4 µM | 
COC(=O)C1=C(C2CN(S(=O)(=O)C3CCCCC3)C2)NC(c2nccs2)=NC1c1ccc(F)cc1Cl (centres unmarked) [Compound 82, Methyl 4-(2-chloro-4-fluorophenyl)-6-(1-(cyclohexylsulfonyl)-azetidin-3-yl)-2-(thiazol-2-yl)-1,4-dihydropyrimidine-5-carboxylate] | 0.197 µM | 6.9 µM | 
COC(=O)C1=C([C@H]2CC[C@H](N(C)S(C)(=O)=O)CC2)NC(c2nccs2)=NC1c1ccc(F)cc1Cl (single isomer, unassigned) [Compound 388B, (trans)-Methyl 4-(2-chloro-4-fluorophenyl)-6-(4-(N-methylmethylsulfonamido)cyclohexyl)-2-(thiazol-2-yl)-1,4-dihydropyrimidine-5-carboxylate] | 0.028 µM | 27.8 µM | 
COC(=O)C1=C(C2CCN(S(=O)(=O)[C@H]3C[C@H](C(=O)O)C3)CC2)NC(c2nccs2)=NC1c1ccc(F)c(F)c1C (stereo partly drawn) [Compound 309C, (trans)-3-((4-(6-(3,4-Difluoro-2-methylphenyl)-5-(methoxycarbonyl)-2-(thiazol-2-yl)-3,6-dihydropyrimidin-4-yl)piperidin-1-yl)sulfonyl)cyclobutanecarboxylic Acid] | 0.047 µM | 36.2 µM | 
COC(=O)C1=C([C@H]2CC[C@@H](N(CCO)S(C)(=O)=O)CC2)NC(c2nccs2)=NC1c1ccc(F)cc1Cl (single isomer, unassigned) [Compound 180B, (cis)-Methyl 4-(2-chloro-4-fluorophenyl)-6-(4-(N-(2-hydroxyethyl)methylsulfonamido)cyclohexyl)-2-(thiazol-2-yl)-1,4-dihydro-pyrimidine-5-carboxylate] | 0.024 µM | 22.1 µM | 
CCOC(=O)C1=C(C2CCN(S(=O)(=O)CCO)CC2)NC(c2nccs2)=NC1c1ccc(F)c(F)c1Cl (single isomer, unassigned) [Compound 356B, Ethyl 4-(2-chloro-3,4-difluorophenyl)-6-(1-((2-hydroxyethyl)sulfonyl)piperidin-4-yl)-2-(thiazol-2-yl)-1,4-dihydropyrimidine-5-carboxylate] | 0.006 µM | 12.2 µM | 
COC(=O)C1=C([C@H]2CC[C@H](N(CCO)CC(F)(F)F)CC2)NC(c2nccs2)=NC1c1ccc(F)c(F)c1Cl (single isomer, unassigned) [Compound 434B, (trans)-Methyl 4-(2-chloro-3,4-difluorophenyl)-6-(4-((2-hydroxyethyl)(2,2,2-trifluoroethyl)amino)cyclohexyl)-2-(thiazol-2-yl)-1,4-dihydropyrimidine-5-carboxylate] | 0.128 µM | 6.8 µM | 
CCOC(=O)C1=C(C2CCN(S(=O)(=O)[C@H]3C[C@H](C(=O)O)C3)CC2)NC(c2nccs2)=NC1c1ccc(F)cc1Cl (stereo partly drawn) [Compound 329B, (trans)-3-((4-(6-(2-Chloro-4-fluorophenyl)-5-(ethoxycarbonyl)-2-(thiazol-2-yl)-3,6-dihydropyrimidin-4-yl)piperidin-1-yl)sulfonyl)cyclobutane-carboxylic Acid] | 0.069 µM | 60 µM | 
CCOC(=O)C1=C(C2CCN(S(=O)(=O)[C@H]3CC[C@@H](C(=O)O)CC3)CC2)NC(c2nccs2)=NC1c1ccc(F)c(F)c1Cl (relative stereo) [Compound 354B, (cis)-4-((4-(6-(2-Chloro-3,4-difluorophenyl)-5-(ethoxycarbonyl)-2-(thiazol-2-yl)-3,6-dihydropyrimidin-4-yl)piperidin-1-yl)sulfonyl)cyclohexane-carboxylic Acid] | 0.018 µM | 7 µM | 
COC(=O)C1=C(C23CC(NS(=O)(=O)C4CNC4)(C2)C3)NC(c2nccs2)=NC1c1ccc(F)c(F)c1Cl (centres unmarked) [Compound 406, Methyl 6-(3-(azetidine-3-sulfonamido)bicyclo[1.1.1]pentan-1-yl)-4-(2-chloro-3,4-difluorophenyl)-2-(thiazol-2-yl)-1,4-dihydropyrimidine-5-carboxylate] | 0.6 µM | 5.6 µM | 
COC(=O)C1=C([C@H]2CC[C@@H](S(=O)(=O)NC(C)C)CC2)NC(c2nccs2)=NC1c1ccc(F)c(F)c1Cl (single isomer, unassigned) [Compound 234B, (cis)-methyl 4-(2-chloro-3,4-difluorophenyl)-6-(4-(N-isopropylsulfamoyl)cyclohexyl)-2-(thiazol-2-yl)-1,4-dihydropyrimidine-5-carboxylate] | 0.113 µM | 16.3 µM | 
COC(=O)C1=C(C2CCN(S(=O)(=O)c3ccccn3)CC2)NC(c2nccs2)=NC1c1cccc(F)c1Cl (single isomer, unassigned) [Compound 116B, Methyl 4-(2-chloro-3-fluorophenyl)-6-(1-(pyridin-2-ylsulfonyl)-piperidin-4-yl)-2-(thiazol-2-yl)-1,4-dihydropyrimidine-5-carboxylate] | 0.207 µM | 71.3 µM | 
COC(=O)C1=C(C2CCN(S(=O)(=O)C(C)(C)C(=O)O)CC2)NC(c2nccs2)=NC1c1ccc(F)cc1Cl (centres unmarked) [Compound 7, 2-((4-(6-(2-Chloro-4-fluorophenyl)-5-(methoxycarbonyl)-2-(thiazol-2-yl)-3,6-dihydro-pyrimidin-4-yl)piperidin-1-yl)sulfonyl)-2-methylpropanoic Acid] | 0.168 µM | > 100 µM | 
COC(=O)C1=C(C2CCN(S(C)(=N)=O)CC2)NC(c2nccs2)=NC1c1ccc(F)c(F)c1Cl (centres unmarked) [Compound 205A, methyl 4-(2-chloro-3,4-difluorophenyl)-6-(1-(S-methylsulfonimidoyl)piperidin-4-yl)-2-(thiazol-2-yl)-1,4-dihydropyrimidine-5-carboxylate] |  | 42.3 µM | 0.007 µM
CCCS(=O)(=O)N[C@H]1CC[C@H](C2=C(C(=O)OC)C(c3ccc(F)cc3Cl)N=C(c3nccs3)N2)CC1 (single isomer, unassigned) [Compound 186A, (trans)-Methyl 4-(2-chloro-4-fluorophenyl)-6-(4-(propyl-sulfonamido)cyclohexyl)-2-(thiazol-2-yl)-1,4-dihydropyrimidine-5-carboxylate] | 0.097 µM | 83.1 µM | 
COC(=O)C1=C(C2CCN(S(=O)(=O)[C@H]3CC[C@H](CC(=O)O)CC3)CC2)NC(c2nccs2)=NC1c1ccc(F)cc1Cl (relative stereo) [Compound 476A, (trans)-2-(4-((4-(6-(2-Chloro-4-fluorophenyl)-5-(methoxycarbonyl)-2-(thiazol-2-yl)-3,6-dihydropyrimidin-4-yl)piperidin-1-yl)sulfonyl)cyclohexyl)acetic Acid] | 0.014 µM | 30.4 µM | 
